Measurements reported in US10435396B2, “2-substituted indazoles, methods for producing same, pharmaceutical preparations that contain same, and use of same to produce drugs” (Bayer Pharma Aktiengesellschaft, priority 2016, dated 2019).

These compounds were tested against human IRAK4 (Homo sapiens (Human), UniProt Q9NWZ3) (assay: IRAK4 kinase assay (IRAK4 TR-FRET assay)). Settings: 1 mM ATP.
Assay type: biochemical
Method: The IRAK4-inhibitory activity of the substances according to the invention was measured in the IRAK4 TR-FRET assay (TR-FRET=Time Resolved Fluorescence Resonance Energy Transfer) described hereinafter.
Recombinant fusion protein from N-terminal GST (glutathione S-transferase) and human IRAK4, expressed in baculovirus-infected insect cells (Hi5, BTI-TN-5B1-4, cell line purchased from Invitrogen, catalogue No. B855-02) and purified via affinity chromatography, was used as enzyme. The substrate used for the kinase reaction was the biotinylated peptide biotin-Ahx-[…] (C-terminus in amide form) which can be purchased, for example, from Biosyntan GmbH (Berlin-Buch).
For the assay, 11 different concentrations in the range from 20 μM to 0.073 nM were prepared from a 2 mM solution of the test substance in DMSO. 50 nl of the respective solution were pipetted into a black low-volume 384-well microtitre plate (Greiner Bio-One, Frickenhausen, Germany), 2 μl of a solution of IRAK4 in assay buffer [50 mM HEPES pH 7.5, 5 mM MgCl2, 1.0 mM dithiothreitol, 30 μM activated sodium orthovanadate, 0.1% (w/v) of bovine gamma-globulin (BGG) 0.04% (v/v) nonidet-P40 (Sigma)] were added and the mixture was incubated for 15 min to allow prebinding of the substances to the enzyme prior to the kinase reaction. The kinase reaction was then started by addition of 3 μl of a solution of adenosine triphosphate (ATP, 1.67 mM=final concentration in 5 μl of assay volume: 1 mM) and peptide substrate (0.83 μM=final concentration in 5 μl assay volume: 0.5 μM) in assay buffer, and the resulting mixture was incubated at 22° C. for the reaction time of 45 min. The concentration of the IRAK4 was adjusted to the respective activity of the enzyme and set such that the assay was carried out in the linear range. Typical concentrations were in the order of about 0.2 nM. The reaction was stopped by addition of 5 μl of a solution of TR-FRET detection reagents [0.1 μM streptavidin-XL665 (Cisbio Bioassays; France, catalogue No. 610SAXLG)] and 1.5 nM anti-phosphoserine antibody [Merck Millipore, “STK Antibody”, catalogue No. 35-002] and 0.6 nM LANCE EU-W1024-labelled anti-mouse-IgG antibody (Perkin-Elmer, product No. AD0077; alternatively, it is possible to use a terbium cryptate-labelled anti-mouse-IgG antibody from Cisbio Bioassays) in aqueous EDTA solution (100 mM EDTA, 0.4% [w/v] bovine serum albumin [BSA] in 25 mM HEPES pH 7.5).
The resulting mixture was incubated at 22° C. for 1 h to allow formation of a complex of the biotinylated phosphorylated substrate and the detection reagents. The amount of the phosphorylated substrate was then evaluated by measuring the resonance energy transfer from europium chelate-labelled anti-mouse-IgG antibody to streptavidin-XL665. To this end, the fluorescence emissions at 620 nm and 665 nm were measured after excitation at 350 nm in a TR-FRET measuring instrument, for example a Rubystar (BMG Labtechnologies, Offenburg, Germany) or a Viewlux (Perkin-Elmer). The ratio of the emissions at 665 nm and 622 nm was taken as a measure of the amount of phosphorylated substrate. The data were normalized (enzyme reaction without test substance=0% inhibition; all other assay components but no enzyme=100% inhibition). Typically, the test substances were tested on the same microtitre plates at 11 different concentrations in the range from 20 μM to 0.073 nM (20 μM, 5.7 μM, 1.6 μM, 0.47 μM, 0.13 μM, 38 nM, 11 nM, 3.1 nM, 0.89 nM, 0.25 nM and 0.073 nM). The dilution series were prepared prior to the assay (2 mM to 7.3 nM in 100% DMSO) by serial dilutions. The IC50 values were calculated using a 4-parameter fit.

Chain of human IRAK4 (Q9NWZ3 whole entry): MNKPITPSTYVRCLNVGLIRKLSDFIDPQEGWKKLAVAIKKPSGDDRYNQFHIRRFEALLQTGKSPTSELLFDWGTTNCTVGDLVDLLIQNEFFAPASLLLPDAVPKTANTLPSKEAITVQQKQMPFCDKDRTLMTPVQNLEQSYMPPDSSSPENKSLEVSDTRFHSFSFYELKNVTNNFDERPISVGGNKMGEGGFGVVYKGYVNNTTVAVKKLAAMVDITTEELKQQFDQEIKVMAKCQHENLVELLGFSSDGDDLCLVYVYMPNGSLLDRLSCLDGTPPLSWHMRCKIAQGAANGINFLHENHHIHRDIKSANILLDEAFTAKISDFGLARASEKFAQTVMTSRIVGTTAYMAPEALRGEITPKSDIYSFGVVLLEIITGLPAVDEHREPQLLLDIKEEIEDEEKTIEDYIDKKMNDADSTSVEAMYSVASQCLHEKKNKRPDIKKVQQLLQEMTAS

Question: With `COc1cc2nn(C3CCN(C4CCN(C)CC4)CC3)cc2cc1NC(=O)c1cccc(C(F)(F)F)n1` [Example 6, N-[6-Methoxy-2-(1′-methyl-1,4′-bipiperidin-4-yl)-2H-indazol-5-yl]-6-(trifluoromethyl)pyridine-2-carboxamide] as the compound, how does the IC50 read?
Answer: Its IC50 is 2 nM.

Question: How did the IC50 turn out when `COc1cc2nn(C3CCN(CCN(C)C)CC3)cc2cc1NC(=O)c1cccc(C(F)(F)F)n1` [Example 9, N-(2-{1-[2-(Dimethylamino)ethyl]piperidin-4-yl}-6-methoxy-2H-indazol-5-yl)-6-(trifluoromethyl)pyridine-2-carboxamide] was run?
Answer: Its IC50 is 1 nM.

Question: `COc1cc2nn(C3CCS(=O)(=O)CC3)cc2cc1NC(=O)c1cccc(C(F)(F)F)n1` [Example 11, N-[2-(1,1-Dioxidotetrahydro-2H-thiopyran-4-yl)-6-methoxy-2H-indazol-5-yl]-6-(trifluoromethyl)pyridine-2-carboxamide] was tested. Which IC50 did it give?
Answer: The IC50 was 3 nM.

Question: How did the IC50 turn out when `CC(C)(O)c1cc2nn([C@H]3CCS(=O)(=O)C3)cc2cc1NC(=O)c1cccc(C(F)(F)F)n1` [Example 41, N-{2-[(3S)-1,1-Dioxidotetrahydrothiophen-3-yl]-6-(2-hydroxypropan-2-yl)-2H-indazol-5-yl}-6-(trifluoromethyl)pyridine-2-carboxamide] was run?
Answer: Its IC50 is 16 nM.

Question: With `COc1cc2nn(C3CCOCC3)cc2cc1NC(=O)c1nc(C(F)(F)F)cs1` [Example 47, N-[6-Methoxy-2-(tetrahydro-2H-pyran-4-yl)-2H-indazol-5-yl]-4-(trifluoromethyl)-1,3-thiazole-2-carboxamide] as the compound, how does the IC50 read?
Answer: Its IC50 is 65 nM.

Question: For `COc1cc2nn(C3CCOCC3)cc2cc1NC(=O)c1nc(-c2ccncc2)no1` [Example 48, N-[6-Methoxy-2-(tetrahydro-2H-pyran-4-yl)-2H-indazol-5-yl]-3-(pyridin-4-yl)-1,2,4-oxadiazole-5-carboxamide], which IC50 is on record?
Answer: Its IC50 is 691 nM.

Question: For `COc1cc2nn(C3CCOCC3)cc2cc1NC(=O)c1nc(C)no1` [Example 49, N-[6-Methoxy-2-(tetrahydro-2H-pyran-4-yl)-2H-indazol-5-yl]-3-methyl-1,2,4-oxadiazole-5-carboxamide], which IC50 is on record?
Answer: The IC50 was 3780 nM.

Question: For `O=C(Nc1cc2cn(C3CCOCC3)nc2cc1Cl)c1nc(C(F)(F)F)cs1` [Example 50, N-[6-Chloro-2-(tetrahydro-2H-pyran-4-yl)-2H-indazol-5-yl]-4-(trifluoromethyl)-1,3-thiazole-2-carboxamide], which IC50 is on record?
Answer: Its IC50 is 496 nM.

Question: `COc1cc2nn(C3CCOCC3)cc2cc1NC(=O)c1ccn(C(F)F)n1` [Example 51, 1-(Difluoromethyl)-N-[6-methoxy-2-(tetrahydro-2H-pyran-4-yl)-2H-indazol-5-yl]-1H-pyrazole-3-carboxamide] was tested. Which IC50 did it give?
Answer: Its IC50 is 6 nM.

Question: For `NC(=O)c1cc2nn(C3CCNCC3)cc2cc1NC(=O)c1cccc(C(F)(F)F)n1` [Example 53, 2-(Piperidin-4-yl)-5-({[6-(trifluoromethyl)pyridin-2-yl]carbonyl}amino)-2H-indazole-6-carboxamide], which IC50 is on record?
Answer: The IC50 was 1 nM.

Question: For `O=C(Nc1cc2cn(C3CCNCC3)nc2cc1C(=O)O)c1cccc(C(F)(F)F)n1` [Example 54, 2-(Piperidin-4-yl)-5-({[6-(trifluoromethyl)pyridin-2-yl]carbonyl}amino)-2H-indazole-6-carboxylic Acid], which IC50 is on record?
Answer: Its IC50 is 75 nM.

Question: `COC(=O)c1cc2nn(C3CCN(C)CC3)cc2cc1NC(=O)c1cccc(C(F)(F)F)n1` [Example 55, Methyl 2-(1-methylpiperidin-4-yl)-5-({[6-(trifluoromethyl)pyridin-2-yl]carbonyl}amino)-2H-indazole-6-carboxylate] was tested. Which IC50 did it give?
Answer: The IC50 was 1 nM.

Question: For `CC(C)(O)CCN1CCC(n2cc3cc(NC(=O)c4cccc(C(F)(F)F)n4)c(C(N)=O)cc3n2)CC1` [Example 56, 2-[1-(3-Hydroxy-3-methylbutyl)piperidin-4-yl]-5-({[6-(trifluoromethyl)pyridin-2-yl]carbonyl}amino)-2H-indazole-6-carboxamide], which IC50 is on record?
Answer: Its IC50 is 4 nM.

Question: With `CN1CCC(n2cc3cc(NC(=O)c4cccc(C(F)(F)F)n4)c(C(N)=O)cc3n2)CC1` [Example 57, 2-(1-Methylpiperidin-4-yl)-5-({[6-(trifluoromethyl)pyridin-2-yl]carbonyl}amino)-2H-indazole-6-carboxamide] as the compound, how does the IC50 read?
Answer: Its IC50 is 2 nM.
